Experimental data as given in patent publication US20020111274A1, “1-alkyl-3-[1-(substituted phenyl) benzotriazol-6-yl] uracils” (BASF Aktiengesellschaft, priority 2000, published 2002).

Experiments:
ABUTH Velvetleaf [1] = test: Postemergence herbicidal evaluation, ABUTH; assay type: in vivo, Abutilon theophrasti, Medic.; settings: postemergence spray, rated about two-three weeks after treatment
Procedure, shortened: (§1)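 Postemergence spray, 40 psi nozzle, on ~2-week seedlings. Carrier: acetone/water 80/20, 1.0% methylated seed oil; dose ~0.006–0.400 kg/ha. Scored visually at 2–3 weeks.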

AMBEL Ragweed, Common [2] = test: Postemergence herbicidal evaluation, AMBEL; assay type: in vivo, Ambrosia artemisifolia, L.; settings: postemergence spray, rated about two-three weeks after treatment
Procedure, shortened: as §1

CASOB Sicklepod [3] = test: Postemergence herbicidal evaluation, CASOB; assay type: in vivo, Cassia obtusifolia, L.; settings: postemergence spray, rated about two-three weeks after treatment
Procedure, shortened: as §1

[4] = test system: CHEAL Lambsquarters, Common; test: Postemergence herbicidal evaluation, CHEAL; assay type: in vivo, Chenopodium album, L.; settings: postemergence spray, rated about two-three weeks after treatment
Procedure, shortened: as §1

ECHOG Barnyardgrass [5] = test: Postemergence herbicidal evaluation, ECHOG; assay type: in vivo, Echinochloa crus-galli, (L.) Beau; settings: postemergence spray, rated about two-three weeks after treatment
Procedure, shortened: as §1

GALAP Galium [6] = test: Postemergence herbicidal evaluation, GALAP; assay type: in vivo, Galium aparine; settings: postemergence spray, rated about two-three weeks after treatment
Procedure, shortened: as §1

[7] = test system: IPOHE Morningglory, Ivyleaf; test: Postemergence herbicidal evaluation, IPOHE; assay type: in vivo, Ipomoea hederacea, (L.) Jacq.; settings: postemergence spray, rated about two-three weeks after treatment
Procedure, shortened: as §1

SETVI Foxtail, Green [8] = test: Postemergence herbicidal evaluation, SETVI; assay type: in vivo, Setaria viridis, (L.) Beau; settings: postemergence spray, rated about two-three weeks after treatment
Procedure, shortened: as §1

GLXMAW Soybean, Williams [9] = test: Postemergence herbicidal evaluation, GLXMAW; assay type: in vivo, Glycine max, (L.) Merr. cv Williams; settings: postemergence spray, rated about two-three weeks after treatment
Procedure, shortened: as §1

[10] = test system: TRZAWR Wheat, Winter, cv Riband; test: Postemergence herbicidal evaluation, TRZAWR; assay type: in vivo, Triticum aestivum; settings: postemergence spray, rated about two-three weeks after treatment
Procedure, shortened: as §1

ORYSAT Rice, Tebonnet [11] = test: Postemergence herbicidal evaluation, ORYSAT; assay type: in vivo, Oryza sativa, (L.); settings: postemergence spray, rated about two-three weeks after treatment
Procedure, shortened: as §1

ZEAMX Corn, Field [12] = test: Postemergence herbicidal evaluation, ZEAMX; assay type: in vivo, Zea mays, L. (Sammel-Bezeichnung); settings: postemergence spray, rated about two-three weeks after treatment
Procedure, shortened: as §1

ABUTH Velvetleaf [13] = test: Preemergence herbicidal evaluation, ABUTH; assay type: in vivo, Abutilon theophrasti, Medic.; settings: preemergence
Procedure, shortened: (§2)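 First, seed is blended with potting soil and sown over roughly an inch of soil per cup. Next, the surface is sprayed with an aqueous acetone solution delivering about 0.013–0.800 kg/ha. Finally, cups are grown in the greenhouse and rated after 4–5 weeks.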

AMBEL Ragweed, Common [14] = test: Preemergence herbicidal evaluation, AMBEL; assay type: in vivo, Ambrosia artemisifolia, L.; settings: preemergence
Procedure, shortened: as §2

CASOB Sicklepod [15] = test: Preemergence herbicidal evaluation, CASOB; assay type: in vivo, Cassia obtusifolia, L.; settings: preemergence
Procedure, shortened: as §2

[16] = test system: CHEAL Lambsquarters, Common; test: Preemergence herbicidal evaluation, CHEAL; assay type: in vivo, Chenopodium album, L.; settings: preemergence
Procedure, shortened: as §2

ECHOG Barnyardgrass [17] = test: Preemergence herbicidal evaluation, ECHOG; assay type: in vivo, Echinochloa crus-galli, (L.) Beau; settings: preemergence
Procedure, shortened: as §2

GALAP Galium [18] = test: Preemergence herbicidal evaluation, GALAP; assay type: in vivo, Galium aparine; settings: preemergence
Procedure, shortened: as §2

[19] = test system: IPOHE Morningglory, Ivyleaf; test: Preemergence herbicidal evaluation, IPOHE; assay type: in vivo, Ipomoea hederacea, (L.) Jacq.; settings: preemergence
Procedure, shortened: as §2

SETVI Foxtail, Green [20] = test: Preemergence herbicidal evaluation, SETVI; assay type: in vivo, Setaria viridis, (L.) Beau; settings: preemergence
Procedure, shortened: as §2

GLXMAW Soybean, Williams [21] = test: Preemergence herbicidal evaluation, GLXMAW; assay type: in vivo, Glycine max, (L.) Merr. cv Williams; settings: preemergence
Procedure, shortened: as §2

[22] = test system: TRZAWR Wheat, Winter, cv Riband; test: Preemergence herbicidal evaluation, TRZAWR; assay type: in vivo, Triticum aestivum; settings: preemergence
Procedure, shortened: as §2

ORYSAT Rice, Tebonnet [23] = test: Preemergence herbicidal evaluation, ORYSAT; assay type: in vivo, Oryza sativa, (L.); settings: preemergence
Procedure, shortened: as §2

ZEAMX Corn, Field [24] = test: Preemergence herbicidal evaluation, ZEAMX; assay type: in vivo, Zea mays, L. (Sammel-Bezeichnung); settings: preemergence
Procedure, shortened: as §2

COC(=O)COc1ccc(C)cc1-n1nnc2cc(F)c(-n3c(=O)cc(C(F)(F)F)n(C)c3=O)cc21 [Example 34]
Postemergence herbicidal rating ABUTH (ABUTH Velvetleaf [1]; 0.008 kg/ha): 9.0 | Postemergence herbicidal rating ABUTH (ABUTH Velvetleaf [1]; 0.016 kg/ha): 9.0 | Postemergence herbicidal rating ABUTH (ABUTH Velvetleaf [1]; 0.032 kg/ha): 9.0 | Postemergence herbicidal rating ABUTH (ABUTH Velvetleaf [1]; 0.062 kg/ha): 9.0 | Postemergence herbicidal rating AMBEL (AMBEL Ragweed, Common [2]; 0.008 kg/ha): 0.0 | Postemergence herbicidal rating AMBEL (AMBEL Ragweed, Common [2]; 0.016 kg/ha): 3.0 | Postemergence herbicidal rating AMBEL (AMBEL Ragweed, Common [2]; 0.032 kg/ha): 9.0 | Postemergence herbicidal rating AMBEL (AMBEL Ragweed, Common [2]; 0.062 kg/ha): 9.0 | Postemergence herbicidal rating CASOB (CASOB Sicklepod [3]; 0.008 kg/ha): 0.0 | Postemergence herbicidal rating CASOB (CASOB Sicklepod [3]; 0.016 kg/ha): 0.0 | Postemergence herbicidal rating CASOB (CASOB Sicklepod [3]; 0.032 kg/ha): 1.0 | Postemergence herbicidal rating CASOB (CASOB Sicklepod [3]; 0.062 kg/ha): 5.0 | Postemergence herbicidal rating CHEAL ([4]; 0.008 kg/ha): 2.0 | Postemergence herbicidal rating CHEAL ([4]; 0.016 kg/ha): 3.0 | Postemergence herbicidal rating CHEAL ([4]; 0.032 kg/ha): 3.0 | Postemergence herbicidal rating CHEAL ([4]; 0.062 kg/ha): 9.0 | Postemergence herbicidal rating ECHCG (ECHOG Barnyardgrass [5]; 0.008 kg/ha): 7.0 | Postemergence herbicidal rating ECHCG (ECHOG Barnyardgrass [5]; 0.016 kg/ha): 9.0 | Postemergence herbicidal rating ECHCG (ECHOG Barnyardgrass [5]; 0.032 kg/ha): 9.0 | Postemergence herbicidal rating ECHCG (ECHOG Barnyardgrass [5]; 0.062 kg/ha): 9.0 | Postemergence herbicidal rating GALAP (GALAP Galium [6]; 0.008 kg/ha): 0.0 | Postemergence herbicidal rating GALAP (GALAP Galium [6]; 0.016 kg/ha): 3.0 | Postemergence herbicidal rating GALAP (GALAP Galium [6]; 0.032 kg/ha): 4.0 | Postemergence herbicidal rating GALAP (GALAP Galium [6]; 0.062 kg/ha): 4.0 | Postemergence herbicidal rating IPOHE ([7]; 0.008 kg/ha): 9.0 | Postemergence herbicidal rating IPOHE ([7]; 0.016 kg/ha): 9.0 | Postemergence herbicidal rating IPOHE ([7]; 0.032 kg/ha): 9.0 | Postemergence herbicidal rating IPOHE ([7]; 0.062 kg/ha): 9.0 | Postemergence herbicidal rating SETVI (SETVI Foxtail, Green [8]; 0.008 kg/ha): 9.0 | Postemergence herbicidal rating SETVI (SETVI Foxtail, Green [8]; 0.016 kg/ha): 9.0 | Postemergence herbicidal rating SETVI (SETVI Foxtail, Green [8]; 0.032 kg/ha): 9.0 | Postemergence herbicidal rating SETVI (SETVI Foxtail, Green [8]; 0.062 kg/ha): 9.0 | Postemergence herbicidal rating GLXMAW (GLXMAW Soybean, Williams [9]; 0.008 kg/ha): 5.0 | Postemergence herbicidal rating GLXMAW (GLXMAW Soybean, Williams [9]; 0.016 kg/ha): 6.5 | Postemergence herbicidal rating GLXMAW (GLXMAW Soybean, Williams [9]; 0.032 kg/ha): 7.0 | Postemergence herbicidal rating GLXMAW (GLXMAW Soybean, Williams [9]; 0.062 kg/ha): 7.0 | Postemergence herbicidal rating TRZAWR ([10]; 0.008 kg/ha): 5.0 | Postemergence herbicidal rating TRZAWR ([10]; 0.016 kg/ha): 5.0 | Postemergence herbicidal rating TRZAWR ([10]; 0.032 kg/ha): 7.0 | Postemergence herbicidal rating TRZAWR ([10]; 0.062 kg/ha): 8.0 | Postemergence herbicidal rating ORYSAT (ORYSAT Rice, Tebonnet [11]; 0.008 kg/ha): 3.0 | Postemergence herbicidal rating ORYSAT (ORYSAT Rice, Tebonnet [11]; 0.016 kg/ha): 4.0 | Postemergence herbicidal rating ORYSAT (ORYSAT Rice, Tebonnet [11]; 0.032 kg/ha): 6.5 | Postemergence herbicidal rating ORYSAT (ORYSAT Rice, Tebonnet [11]; 0.062 kg/ha): 7.5 | Postemergence herbicidal rating ZEAMX (ZEAMX Corn, Field [12]; 0.008 kg/ha): 7.0 | Postemergence herbicidal rating ZEAMX (ZEAMX Corn, Field [12]; 0.016 kg/ha): 7.5 | Postemergence herbicidal rating ZEAMX (ZEAMX Corn, Field [12]; 0.032 kg/ha): 8.5 | Postemergence herbicidal rating ZEAMX (ZEAMX Corn, Field [12]; 0.062 kg/ha): 9.0 | ABUTH herbicidal rating (ABUTH Velvetleaf [13]; rate 0.016 kg/ha): 9.0 | ABUTH herbicidal rating (ABUTH Velvetleaf [13]; rate 0.032 kg/ha): 9.0 | ABUTH herbicidal rating (ABUTH Velvetleaf [13]; rate 0.062 kg/ha): 9.0 | ABUTH herbicidal rating (ABUTH Velvetleaf [13]; rate 0.125 kg/ha): 9.0 | AMBEL herbicidal rating (AMBEL Ragweed, Common [14]; rate 0.016 kg/ha): 1.0 | AMBEL herbicidal rating (AMBEL Ragweed, Common [14]; rate 0.032 kg/ha): 5.0 | AMBEL herbicidal rating (AMBEL Ragweed, Common [14]; rate 0.062 kg/ha): 6.0 | AMBEL herbicidal rating (AMBEL Ragweed, Common [14]; rate 0.125 kg/ha): 8.0 | CASOB herbicidal rating (CASOB Sicklepod [15]; rate 0.032 kg/ha): 2.0 | CASOB herbicidal rating (CASOB Sicklepod [15]; rate 0.062 kg/ha): 2.5 | CASOB herbicidal rating (CASOB Sicklepod [15]; rate 0.125 kg/ha): 6.0 | CHEAL herbicidal rating ([16]; rate 0.016 kg/ha): 9.0 | CHEAL herbicidal rating ([16]; rate 0.032 kg/ha): 9.0 | CHEAL herbicidal rating ([16]; rate 0.062 kg/ha): 9.0 | CHEAL herbicidal rating ([16]; rate 0.125 kg/ha): 9.0 | ECHCG herbicidal rating (ECHOG Barnyardgrass [17]; rate 0.016 kg/ha): 4.0 | ECHCG herbicidal rating (ECHOG Barnyardgrass [17]; rate 0.032 kg/ha): 2.0 | ECHCG herbicidal rating (ECHOG Barnyardgrass [17]; rate 0.062 kg/ha): 5.0 | ECHCG herbicidal rating (ECHOG Barnyardgrass [17]; rate 0.125 kg/ha): 7.5 | GALAP herbicidal rating (GALAP Galium [18]; rate 0.016 kg/ha): 0.0 | GALAP herbicidal rating (GALAP Galium [18]; rate 0.032 kg/ha): 0.0 | GALAP herbicidal rating (GALAP Galium [18]; rate 0.062 kg/ha): 0.0 | GALAP herbicidal rating (GALAP Galium [18]; rate 0.125 kg/ha): 7.0 | IPOHE herbicidal rating ([19]; rate 0.032 kg/ha): 9.0 | IPOHE herbicidal rating ([19]; rate 0.062 kg/ha): 5.0 | IPOHE herbicidal rating ([19]; rate 0.125 kg/ha): 9.0 | SETVI herbicidal rating (SETVI Foxtail, Green [20]; rate 0.016 kg/ha): 7.0 | SETVI herbicidal rating (SETVI Foxtail, Green [20]; rate 0.032 kg/ha): 6.0 | SETVI herbicidal rating (SETVI Foxtail, Green [20]; rate 0.062 kg/ha): 9.0 | SETVI herbicidal rating (SETVI Foxtail, Green [20]; rate 0.125 kg/ha): 9.0 | GLXMAW herbicidal rating (GLXMAW Soybean, Williams [21]; rate 0.016 kg/ha): 1.0 | GLXMAW herbicidal rating (GLXMAW Soybean, Williams [21]; rate 0.032 kg/ha): 1.0 | GLXMAW herbicidal rating (GLXMAW Soybean, Williams [21]; rate 0.062 kg/ha): 1.5 | GLXMAW herbicidal rating (GLXMAW Soybean, Williams [21]; rate 0.125 kg/ha): 2.0 | TRZAWR herbicidal rating ([22]; rate 0.016 kg/ha): 1.0 | TRZAWR herbicidal rating ([22]; rate 0.032 kg/ha): 1.0 | TRZAWR herbicidal rating ([22]; rate 0.062 kg/ha): 1.0 | TRZAWR herbicidal rating ([22]; rate 0.125 kg/ha): 3.0 | ORYSAT herbicidal rating (ORYSAT Rice, Tebonnet [23]; rate 0.016 kg/ha): 1.0 | ORYSAT herbicidal rating (ORYSAT Rice, Tebonnet [23]; rate 0.032 kg/ha): 2.5 | ORYSAT herbicidal rating (ORYSAT Rice, Tebonnet [23]; rate 0.062 kg/ha): 3.0 | ORYSAT herbicidal rating (ORYSAT Rice, Tebonnet [23]; rate 0.125 kg/ha): 5.0 | ZEAMX herbicidal rating (ZEAMX Corn, Field [24]; rate 0.016 kg/ha): 0.0 | ZEAMX herbicidal rating (ZEAMX Corn, Field [24]; rate 0.032 kg/ha): 0.5 | ZEAMX herbicidal rating (ZEAMX Corn, Field [24]; rate 0.062 kg/ha): 3.5 | ZEAMX herbicidal rating (ZEAMX Corn, Field [24]; rate 0.125 kg/ha): 4.0
